Entries after “also recorded” stand apart in the source; their conditions may differ.
Legend:
poly d(AT).d(AT) = assay: Luminescence with poly d(AT).d(AT); type: binding; details: Buffer (50.0 mM NaCl), 25
Z-form DNA = assay: Steady state luminescence polarization with Z-form DNA; type: binding
Method: (§1) FIG. 22 Steady State Polarization of Ru(bpy)2 (dppz)^2+ with B and Z-form DNA Under the conditions that provide B-form (lower curve) DNA the highest measured polarization is 0.15 with a limiting polarization 0.10. Under the conditions that provide Z-DNA (upper curve) the highest polarization is 0.35 with a limiting polarization of 0.14. Ru(bpy)2 (dppz)^2+ 10 μM, poly d(GC) d(GC) 100 μM, λex =482 nm.
Similarly, when 1 μM Ru(bpy)2 (dppz)^2+ is titrated into poly d(GC).d(GC) (100 μM) in the Z-form, luminescence polarization is also observed, but in this case the value is 0.35, over double the value found with the analogous solution with B-form. […] As more complex is added the observed polarization reduces to a limiting value of 0.14, still higher than the analogous sample with B-form, thus further confirming the Z-form is a more rigid structure than the B-form.

B-form DNA = assay: Steady state luminescence polarization with B-form DNA; type: binding; details: 100 μM DNA
Method: as §1
To further test the extent of intercalation of this complex a study of the steady state luminescence polarization of the complex bound to each form of DNA was made. These experiments give information on how rigidly the complex is held by the DNA. […] This reflects a situation where the complex is completely bound to the right-handed helix. As the concentration of Ru(bpy)2 (dppz)^2+ increases, the polarization decreases to limiting value (0.10) at a complex:base pair ratio of 1:10.
To further test the extent of intercalation of this complex we studied the steady state luminescence polarization of the complex bound to each form of DNA. These experiments give information on how rigidly the complex is held by the DNA. […] This reflects a situation where the complex is completely bound to the right-handed helix. As the concentration of Ru(bpy)2 (dppz)^2+ increases, the polarization decreases to a limiting value (0.10) at a complex: base pair rtio of 1:10.

[1] = tested on: poly d(GC).d(GC) Z-form DNA; assay: Luminescence with poly d(GC).d(GC), Z-form; type: binding
Method: (§2) FIG. 21A to 21C: Luminescent Enhancement of Ru(bpy)2 (dppz)^2+ with B and Z-form DNA a. Ru(bpy)2 (dppz)^2+ 10 μM in buffer R=50.0 mM NaCl, 5.0 mM Tris-OH, pH=7.0. b. Ru(bpy)2 (dppz)2 10 μM in buffer R, with poly d(GC) d(GC) 100 μM under conditions providing B-form DNA. c. Ru(bpy)2 (dppz)^2+ 10 μM in buffer R-L=20.0 mM NaCl, 2.0 mM Tris-OH, pH 7.0, Co(NH3)6^3+ 4μM., with poly d(GC) d(GC) 100 μM under conditions providing Z-form DNA. All λex =482 nm.
Preparations of Ru(bpy)2 (dppz)^2+ (10 μM) in buffer R^(40) and buffer R-L^(41) (pH 7.0) produced species that were nonluminescent solutions (FIG. 21a) (λirr =482 nm). […] Luminescent behavior such as this can be attributed to a highly intercalated species. This must be due to the complex being bound to the Z-form and not due to lower salt conditions (or added Co(NH3)6^3+) as the under the same Z-form producing conditions, calf thymus DNA produces the expected B-form luminescence.
An interesting twist to the luminescent properties of Ru(bpy)2 (dppz)^2+ is observed when this complex is bound to the left handed helix Z-form DNA. […] Luminescent behavior such as this can be attributed to a highly intercalated species. This must be due to the complex being bound to the Z-from nand not due to lower salt conditions (or added Co(NH3)6^3+) as the under the same Z-form producing conditions, calf thymus DNA produces the expected B-from luminescence.

CT DNA = assay: Luminescence in presence of CT DNA; type: binding, calf
Method: While a linear relationship of the luminescence is observed for Ru(bpy)2 (dppz)^2+ in iso-propanol as a function of temperature this is not the behavior seen when the complex is bound to DNA. When the complex, Ru(bpy)2 (dppz)^2+ is bound to cal-thymus (CT) DNA (100 μM) under low salt conditions at 25 ° C. a biexponential lifetime is observed. A short component which is assigned to a surface interaction, and a long component which is assigned to an intercalated species. As is shown in Table 1, the short component remains relatively unchanged until 70 ° C. when there is an abrupt decrease in the lifetime to 45 ns at 85° C. […] Under these conditions the CT DNA melts and the observed lifetimes of the complexes are similar to those lifetimes measured with single stranded DNA. […] In fact there is an abrupt decrease in the quantum yield at the melting temperature at this salt concentration. This decrease in quantum yield may be explained thus: when the complex is bound to the double stranded form the quenching ability of H2 O is inhibited while at the melting temperature the single stranded form of DNA cannot protect the complex from quenching of H2 O and therefore the observed luminescence is not as intense.

poly r(AU).r(AU) = assay: Luminescence with poly r(AU).r(AU); type: binding
Source text: It appears then that luminescence is observed only when the ruthenium complex is intercalated in (or perhaps otherwise protected by) the nucleic acid structure. […] The relative luminescence of ruthenium complexes in the presence of various helical DNA's under varying conditions is shown in Table 16.

[2] = tested on: poly d(GC).d(GC) B-form DNA; assay: Luminescence with poly d(GC).d(GC), B-form; type: binding
Method: as §2
As expected, preparations of Ru(bpy)2(dppz)^2+ (10 μM) in buffer R(^9) and buffer R-L(^10) (pH=7.0) produced species that were nonluminescent solutions (FIG. 21a) (λirr =482 nm).

[3] = tested on: electrophoresed DNA in agarose gel; assay: Staining of DNA in agarose gels; details: in words
Source text: One interesting application is the binding of this complex to DNA that has been electrophoresed in a agarose gel.

[4] = 10 μM complex, 100 μM DNA, buffer R-L

[Ru+2].c1ccc(-c2ccccn2)nc1.c1ccc(-c2ccccn2)nc1.c1ccc2nc3c4cccnc4c4ncccc4c3nc2c1 [Ru(bpy)2 (dppz)^2+]
Rel. Lumi. (poly d(AT).d(AT)): 0.68 | highest luminescence polarization, Z-form (Z-form DNA; 1 μM complex, 100 μM DNA): 0.35 | limiting luminescence polarization, Z-form (Z-form DNA; 100 μM DNA): 0.14 | relative strength of binding, Z-form vs B-form (Z-form DNA; in words): binds better to the Z-form; also recorded: held more rigidly by Z-form than by the analogous B-form | highest luminescence polarization, B-form (B-form DNA; 1 μM probe): 0.15 | limiting luminescence polarization, B-form (B-form DNA): 0.10 | luminescence with Z-form DNA [1, 4]: highly luminescent | luminescence λmax with Z-form DNA [1, 4]: 640 nm | effect on Z to B transition ([1]; circular dichroism, over hours): does not cause the Z to B transition | Rel. Lumi. (CT DNA; Buffer (50.0 mM NaCl), 25): 0.55 | Rel. Lumi. (CT DNA; Buffer (50.0 mM NaCl), 75): 0.53 | Rel. Lumi. (CT DNA; Buffer** (0.5 mM NaCl), 25): 0.61 | Rel. Lumi. (CT DNA; Buffer** (0.5 mM NaCl), 35): 0.06 | Rel. Lumi. (CT DNA; Buffer** (0.5 mM NaCl), 45): 0.59 | Rel. Lumi. (CT DNA; Buffer** (0.5 mM NaCl), 55): 0.55 | Rel. Lumi. (CT DNA; Buffer** (0.5 mM NaCl), 70): 0.47 | Rel. Lumi. (CT DNA; Buffer** (0.5 mM NaCl), 90): 0.23 | luminescence with poly r(AU).r(AU) (poly r(AU).r(AU); 10 μM complex, 100 μM RNA, buffer R): no luminescence | Rel. Lumi. (poly r(AU).r(AU); Buffer (50.0 mM NaCl), 25): 0.01 | luminescence with B-form DNA ([2]; 10 μM complex, 100 μM DNA): highly luminescent | luminescence λmax with B-form DNA ([2]; 10 μM complex, 100 μM DNA): 628 nm | Rel. Lumi. ([2]; Buffer (50.0 mM NaCl), poly d(GC).d(GC), 25): 0.72 | staining of DNA in agarose gels [3]: no background luminescence from the complex bound to agarose

— patent US5157032A, “Mixed ligand complexes and uses thereof as binding agents and probes to DNA” (The Trustees of Columbia University In The City of New York, priority 1990, dated 1992)
